11 compounds from PubChem BioAssay AID330 (DTP/NCI, 2004) can be followed below.

Where “and” joins values, the source holds several entries; their conditions need not be identical. Identical values can stand only once. Toxic doses and inconclusive results are not listed.

The subject of the assay is P388 leukemia ip, CD2F1 mice, survival T/C. The assay can be described thus: NCI In Vivo Anticancer Drug Screen. Data for tumor model P388 Leukemia (intraperitoneal) in CD2F1 (CDF1) mice. The note with it: endpoint: median survival time, higher = longer survival. An outline of the steps: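 Mice carrying the transplanted tumor received test compound or vehicle. Survival was recorded in each group, and the value is the treated-group measurement divided by that of the vehicle-treated control group.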

Setting [1] is: dose: 60.0 mg/kg/injection, schedule: Q01DX005 (ip), vehicle: saline with Tween-80.
The mark [2] stands for this setting: dose: 120.0 mg/kg/injection, schedule: Q01DX005 (ip), vehicle: saline with Tween-80.
Setting [3] is: dose: 240.0 mg/kg/injection, schedule: Q01DX005 (ip), vehicle: saline with Tween-80.

For `CC(C)CC(=O)OCC1=CCN2CC[C@@H](O)[C@@H]12`, the T/C is 105 % of control (dose: 15.0 mg/kg/injection, schedule: Q01DX009 (ip), vehicle: saline + alcohol); 109 % of control (dose: 30.0 mg/kg/injection, schedule: Q01DX009 (ip), vehicle: saline + alcohol); 105 % of control (dose: 60.0 mg/kg/injection, schedule: Q01DX009 (ip), vehicle: saline + alcohol); 108 % of control (dose: 120.0 mg/kg/injection, schedule: Q01DX009 (ip), vehicle: saline + alcohol); 108 % of control (dose: 240.0 mg/kg/injection, schedule: Q01DX009 (ip), vehicle: saline + alcohol); 114 % of control (dose: 480.0 mg/kg/injection, schedule: Q01DX009 (ip), vehicle: saline + alcohol).
For the compound `Cc1cc(=O)oc2cc(OCc3c(F)cccc3Cl)ccc12`, the T/C under setting [1] is 97 % of control, the T/C under setting [2] is 90 % of control and the T/C under setting [3] is 91 % of control.
Take `C(=N/NC1=NCCN1)/c1c2ccccc2c(/C=N\NC2=NCCN2)c2ccccc12`: the T/C is, setting by setting: (dose: 0.05 mg/kg/injection, schedule: Q01DX009 (ip), vehicle: saline) 155 % of control; (dose: 0.2 mg/kg/injection, schedule: Q01DX009 (ip), vehicle: saline) 161 % of control; (dose: 0.39 mg/kg/injection, schedule: Q01DX009 (ip), vehicle: saline) 183 % of control; (dose: 0.78 mg/kg/injection, schedule: Q01DX009 (ip), vehicle: saline) 238 % of control; (dose: 1.56 mg/kg/injection, schedule: Q01DX009 (ip), vehicle: saline) 188 % of control and 193 % of control; (dose: 3.12 mg/kg/injection, schedule: Q01DX009 (ip), vehicle: saline) 204 % of control. Besides, the T/C reads like this: (dose: 5.18 mg/kg/injection, schedule: Q04DX002 (ip), vehicle: saline) 181 % of control; (dose: 6.25 mg/kg/injection, schedule: Q01DX009 (ip), vehicle: saline) 193 % of control; (dose: 7.78 mg/kg/injection, schedule: Q04DX002 (ip), vehicle: saline) 228 % of control; (dose: 8.64 mg/kg/injection, schedule: Q04DX002 (ip), vehicle: saline) 227 % of control; (dose: 12.5 mg/kg/injection, schedule: Q01DX009 (ip), vehicle: saline) 225 % of control; (dose: 13.0 mg/kg/injection, schedule: Q04DX002 (ip), vehicle: saline) 166 % of control. The T/C is, setting by setting: (dose: 14.4 mg/kg/injection, schedule: Q04DX002 (ip), vehicle: saline) 181 % of control; (dose: 21.6 mg/kg/injection, schedule: Q04DX002 (ip), vehicle: saline) 184 % of control; (dose: 24.0 mg/kg/injection, schedule: Q04DX002 (ip), vehicle: saline) 200 % of control; (dose: 25.0 mg/kg/injection, schedule: Q01DX009 (ip), vehicle: saline) 121 % of control; (dose: 29.0 mg/kg/injection, schedule: Q01DX001 (ip), vehicle: water) 195 % of control; (dose: 36.0 mg/kg/injection, schedule: Q04DX002 (ip), vehicle: saline) 210 % of control. Also, the T/C by setting is: (dose: 40.0 mg/kg/injection, schedule: Q04DX002 (ip), vehicle: saline) 181 % of control; (dose: 60.0 mg/kg/injection, schedule: Q04DX002 (ip), vehicle: saline) 192 % of control; (dose: 87.0 mg/kg/injection, schedule: Q01DX001 (ip), vehicle: water) 222 % of control; (dose: 133.0 mg/kg/injection, schedule: Q01DX001 (ip), vehicle: water) 236 % of control; (dose: 200.0 mg/kg/injection, schedule: Q01DX001 (ip), vehicle: water) 286 % of control; (dose: 1.57 micrograms/kg/injection, schedule: Q01DX009 (ip), vehicle: saline) 100 % of control. Also, the T/C is, setting by setting: (dose: 3.13 micrograms/kg/injection, schedule: Q01DX009 (ip), vehicle: saline) 99 % of control; (dose: 6.25 micrograms/kg/injection, schedule: Q01DX009 (ip), vehicle: saline) 107 % of control; (dose: 12.5 micrograms/kg/injection, schedule: Q01DX009 (ip), vehicle: saline) 104 % of control; (dose: 25.0 micrograms/kg/injection, schedule: Q01DX009 (ip), vehicle: saline) 109 % of control; (dose: 50.0 micrograms/kg/injection, schedule: Q01DX009 (ip), vehicle: saline) 122 % of control.
For the compound `C/C(=C/C(=O)Nc1ccccc1)Nc1onc(C)c1C`, the T/C under setting [1] was 102 % of control, the T/C under setting [2] is 96 % of control and the T/C under setting [3] is 90 % of control.
As for `CC1CC2OC(/C=C/C=C/C=C/C=C\C=C\C(O)=C3/C(=O)C(C(C)C)N(C)C3=O)C(O)C2O1` (configuration not stated), the T/C was 99 % of control (dose: 310.0 micrograms/kg/injection, schedule: Q01DX005 (ip), vehicle: saline with Tween-80); 94 % of control (dose: 625.0 micrograms/kg/injection, schedule: Q01DX005 (ip), vehicle: saline with Tween-80); 101 % of control (dose: 1250.0 micrograms/kg/injection, schedule: Q01DX005 (ip), vehicle: saline with Tween-80); 99 % of control (dose: 2500.0 micrograms/kg/injection, schedule: Q01DX005 (ip), vehicle: saline with Tween-80); 99 % of control (dose: 5000.0 micrograms/kg/injection, schedule: Q01DX005 (ip), vehicle: saline with Tween-80).
For `NC(=O)/C=C/C(N)=O`, the T/C (dose: 12.5 mg/kg/injection, schedule: Q01DX009 (ip), vehicle: saline with Tween-80) is 104 % of control; the T/C (dose: 25.0 mg/kg/injection, schedule: Q01DX009 (ip), vehicle: saline with Tween-80) is 98 % of control; the T/C (dose: 50.0 mg/kg/injection, schedule: Q01DX009 (ip), vehicle: saline with Tween-80) was 102 % of control; the T/C (dose: 100.0 mg/kg/injection, schedule: Q01DX009 (ip), vehicle: saline with Tween-80) was 107 % of control; the T/C (dose: 100.0 mg/kg/injection, schedule: Q04DX003 (ip), vehicle: saline with Tween-80) was 90 % of control; the T/C (dose: 200.0 mg/kg/injection, schedule: Q01DX009 (ip), vehicle: saline with Tween-80) is 101 % of control. Further, the T/C (dose: 200.0 mg/kg/injection, schedule: Q04DX003 (ip), vehicle: saline with Tween-80) was 90 % of control.
With `C=C1c2c(O)c(C)c(O)c(C(C)=O)c2OC12CC(=O)C(C(=O)O)=C2C` (configuration not stated), the T/C by setting is: (dose: 12.5 mg/kg/injection, schedule: Q01DX009 (ip), vehicle: gum acacia) 105 % of control and 112 % of control; (dose: 25.0 mg/kg/injection, schedule: Q01DX009 (ip), vehicle: gum acacia) 108 % of control and 109 % of control; (dose: 50.0 mg/kg/injection, schedule: Q01DX009 (ip), vehicle: gum acacia) 108 % of control; (dose: 100.0 mg/kg/injection, schedule: Q01DX009 (ip), vehicle: gum acacia) 108 % of control and 110 % of control; (dose: 200.0 mg/kg/injection, schedule: Q01DX009 (ip), vehicle: gum acacia) 108 % of control and 110 % of control.
For the compound `CC1N[P+]2(OC1=O)Oc1ccccc1N2C` (configuration not stated), the T/C is, setting by setting: (dose: 87.5 mg/kg/injection, schedule: Q04DX002 (ip), vehicle: Klucel (hydroxypropylcellulose) (HPC)) 102 % of control; (dose: 175.0 mg/kg/injection, schedule: Q04DX002 (ip), vehicle: Klucel (hydroxypropylcellulose) (HPC)) 100 % of control; (dose: 350.0 mg/kg/injection, schedule: Q04DX002 (ip), vehicle: Klucel (hydroxypropylcellulose) (HPC)) 100 % of control.
For the compound `CCOC(=O)/C(C#N)=N/Nc1ccc(S(=O)(=O)NC(C)=O)cc1`, the T/C is 96 % of control (dose: 50.0 mg/kg/injection, schedule: Q01DX005 (ip), vehicle: Klucel (hydroxypropylcellulose) (HPC)); 92 % of control (dose: 100.0 mg/kg/injection, schedule: Q01DX005 (ip), vehicle: Klucel (hydroxypropylcellulose) (HPC)); 96 % of control (dose: 200.0 mg/kg/injection, schedule: Q01DX005 (ip), vehicle: Klucel (hydroxypropylcellulose) (HPC)).
For the compound `CC1(C)N=C(N)N=C(N)N1c1cccc(OCCOc2ccccc2[N+](=O)[O-])c1`, the T/C reads like this: under setting [1], 104 % of control; under setting [2], 95 % of control; under setting [3], 98 % of control.
Turning to `C=C1[C@H]2C[C@H]2[C@]2(C)C=C3OC(=O)C(C)=C3C[C@@H]12`, the T/C (dose: 5.5 mg/kg/injection, schedule: Q01DX005 (ip), vehicle: Klucel (hydroxypropylcellulose) (HPC)) is 94 % of control; the T/C (dose: 11.0 mg/kg/injection, schedule: Q01DX005 (ip), vehicle: Klucel (hydroxypropylcellulose) (HPC)) is 98 % of control; the T/C (dose: 22.0 mg/kg/injection, schedule: Q01DX005 (ip), vehicle: Klucel (hydroxypropylcellulose) (HPC)) is 100 % of control; the T/C (dose: 44.0 mg/kg/injection, schedule: Q01DX005 (ip), vehicle: Klucel (hydroxypropylcellulose) (HPC)) is 94 % of control; the T/C (dose: 80.0 mg/kg/injection, schedule: Q01DX005 (ip), vehicle: Klucel (hydroxypropylcellulose) (HPC)) was 91 % of control.
